The values that follow are results of earlier work, collected in PMC11249953, “c-KIT inhibitors reduce pathology and improve behavior in the Tg(SwDI) model of Alzheimer’s disease” (Life Science Alliance, 2024).

Each structure is given as a SMILES string. Where two headings read alike, the source gives them in different places.

What is called IC50 is the concentration at which inhibition is half-maximal.

The test system of one data set is APPswe/PSEN1dE9 mice. Further details: method as in Li et al, 2020. The conditions noted are these: chronic oral treatment, ref Li et al, 2020; cited from earlier work.
The conditions of data set [1]: ref Li et al, 2020, cited from earlier work.
For a further data set, the system named is c-KIT. Further details: method as in Dubreuil et al, 2009. As to conditions: ref Dubreuil et al, 2009; cited from earlier work.

With `Cc1ccc(NC(=O)c2ccc(CN3CCN(C)CC3)cc2)cc1Nc1nc(-c2cccnc2)cs1` [Masitinib], in the data set with APPswe/PSEN1dE9 mice, the amyloid-β and neuroinflammation result is listed as “not reducing amyloid-β or attenuating neuroinflammation”; the spatial learning performance result is reported as “reverse spatial learning performance”. The brain penetrance result in data set [1] is “poor brain penetrance”. Besides, the brain penetrance entry in data set [1] (listed as masitinib) was “poor brain penetrant”. The IC50 in the data set with c-KIT was […].
